Tests used:
[1] = system: SK-Br-3 cells; assay: SK-Br-3 cell growth inhibition test (SRB assay); assay type: cell-based, human; settings: 72 h
Procedure: SK-Br-3 Cell Growth Inhibition Test (SRB Assay)
(§1) II. Reagents and Consumable Materials
Culture medium: 85% DMEM+15% FBS; pancreatin (0.25% (w/v) solution was formulated with PBS, 0.53 mM of EDTA was added in the formulation); PBS; 96-well culture plate.
(§2) 1. A plate (10 cm) of cells in logarithmic growth phase that were normally cultured was collected;
(§3) 2. The culture solution was sucked out. The plate was washed with 5 mL of PBS once or twice;
(§4) 3. 1.5 mL of 0.25% pancreatin was added to the plate to infiltrate the cells;
4. The pancreatin was sucked out. The culture plate was placed in an incubator. Digestion was carried out for about 2 min at 37° C.;
(§5) 5. 4 mL of complete culture solution was added to the culture plate to stop the digestion. The cells were carefully scoured with micropipette (1 mL) to give a uniform single cell suspension. The suspension was implanted into a 96-well cell culture plate by 10000 cells/100 μL per well. The culture plate was incubated overnight under 5% CO2 at 37° C. In day 2, 100 μL of culture solution comprising a compound was added in each well. The plate was further incubated for 72 h under 5% CO2 at 37° C.;
(§6) 6. The culture solution was sucked out. 100 uL of TCA fixed cells which were diluted to 10% were added to each well. The plate was kept in a refrigerator for 1 h at 4° C.
7. TCA stationary liquid was sucked out. […]
13. OD values were determined at […]. […]

[2] = system: DU-145 cells; assay: DU-145 cell growth inhibition test (MTT assay); assay type: cell-based; settings: 72 h
Procedure: DU-145 Cell Growth Inhibition Test (MTT Assay)
as §1
Culture medium: 90% EMEM+10% FBS (fetal calf serum); Pancreatin (0.25% (w/v) solution was formulated with PBS, 0.53 mM of EDTA was added in the formulation); PBS; 96-well culture plate.
as §2, §3
(§7) 3. PBS was sucked out. 1.5 mL of 0.25% pancreatin was added to the plate to infiltrate the cells for 1 min;
(§8) 4. The culture plate was placed in an incubator. Digestion was carried out for about 1 min at 37° C.;
as §5, with “5. 3 mL of” for “5. 4 mL of”, “a uniform cell suspension.” for “a uniform single cell suspension.”, “cell culture disc by 4000” for “cell culture plate by 10000”, “disc by 4000 cells/100 μL” for “plate by 10000 cells/100 μL”
(§9) 6. The culture solution was sucked out;
(§10) 7. 100 μL of serum-free culture solution containing 0.5 mg/mL MTT was added in each well. The plate was incubated for 3 h;
(§11) 8. The culture solution was carefully sucked out;
(§12) 9. 100 μL of DMSO was added in each well and vibrated to dissolve;
(§13) 10. OD values were determined at 490 nM.
(§14) IV. Results and Treatments
(§15) 1. Calculation of Relative Inhibition Ratio The inhibition ratio of a compound on cell growth=(PC−n)/(PC−NC)×100%
(§16) PC: OD values of cells after normal growth in control wells without a compound;
(§17) n: OD values of cells after growth in test wells with a compound;
(§18) NC: Background OD values of blank wells without a compound and cells.

[3] = system: Hep3B cells; assay: Hep3B cell growth inhibition test (SRB assay); assay type: cell-based; settings: 72 h
Procedure: Hep3B Cell Growth Inhibition Test (SRB Assay)
as §1
Culture medium: 90% RPMI-1640+10% FBS; Pancreatin (0.25% (w/v) solution was formulated with PBS, 0.53 mM of EDTA was added in the formulation); PBS; 96-well culture plate.
as §2, §3, §4
(§19) 4. The pancreatin was sucked out. The culture plate was placed in an incubator. Digestion was carried out for about 3 min at 37° C.;
as §5, with “5000” for “10000”
as §6
(§20) 7. TCA stationary liquid was sucked out. Each well was washed with 150 μL of ddH2O five times;
(§21) 8. After the stationary liquid was cleansed, the plate was dried in the air at the room temperature;
(§22) 9. 60 μL of SRB staining solution was added in each well. The well was stained for 15 min at the room temperature;
(§23) 10. The SRB staining solution was sucked out. Each well was washed with 150 μL of 1% glacial acetic acid five times;
(§24) 11. After the SRB staining solution was cleansed, the plate was dried in the air at the room temperature;
(§25) 12. 100 μL of 10 mM Tris was added in each well. The plate was vibrated to dissolve out SRB;
(§26) 13. OD values were determined at 570 nM.
as §14
1. Calculation of Relative Inhibition Ratio The inhibition ratio of the compound on cell growth=(PC−n)/(PC−NC)×100% […]

[4] = system: 786-O cells; assay: 786-O cell growth inhibition test (MTT assay); assay type: cell-based, human; settings: 72 h
Procedure: 786-O Cell Growth Inhibition Test (MTT Assay)
as §1
(§27) Culture medium: 90% RPMI1640+10% FBS (fetal calf serum); Pancreatin (0.25% (w/v) solution was formulated with PBS, 0.53 mM of EDTA was added in the formulation); PBS; 96-well culture plate.
as §2, §3, §7, §8
as §5, with “5. 3 mL of” for “5. 4 mL of”, “a uniform cell suspension.” for “a uniform single cell suspension.”, “cell culture disc by 2000” for “cell culture plate by 10000”, “disc by 2000 cells/100 μL” for “plate by 10000 cells/100 μL”
as §9, §10, §11, §12, §13, §14, §15, §16, §17, §18

[5] = system: NCI-H460 cells; assay: NCI-H460 cell growth inhibition test (MTT assay); assay type: cell-based, human; settings: NCI-460 cells (NCI-H460 in method), 72 h
Procedure: NCI-H460 Cell Growth Inhibition Test (MTT Assay)
as §1, §27, §2, §3, §7
(§28) 4. The culture plate was placed in an incubator. Digestion was carried out for about 3 min at 37° C.;
as §5, with “5. 3 mL of” for “5. 4 mL of”, “a uniform cell suspension.” for “a uniform single cell suspension.”, “cell culture disc by 2000” for “cell culture plate by 10000”, “disc by 2000 cells/100 μL” for “plate by 10000 cells/100 μL”
as §9, §10, §11
9. […]
(§29) 10. OD values were determined at 490 nM. […]

[6] = system: MCF-7 cells; assay: MCF-7 cell growth inhibition test (SRB assay); assay type: cell-based, human; settings: 73 h
Procedure: MCF-7 Cell Growth Inhibition Test (SRB Assay)
as §1
Culture medium: 90% EMEM+10% FBS; Pancreatin (0.25% (w/v) solution was formulated with PBS, 0.53 mM of EDTA was added in the formulation); PBS; 96-well culture plate.
as §2, §3, §4, §19
as §5, with “73” for “72”
as §6, §20, §21, §22, §23, §24, §25, §26, §14
1. Calculation of Relative Inhibition Ratio The inhibition ratio of a compound on cell growth=(PC−n)/(PC−NC)×100% […]

[7] = system: A375 cells; assay: A375 cell growth inhibition test (MTT assay); assay type: cell-based, human; settings: 72 h
Procedure: A375 Cell Growth Inhibition Test (MTT Assay)
as §1
Culture medium: 90% DMEM+10% FBS (fetal calf serum); Pancreatin (0.25% (w/v) solution was formulated with PBS, 0.53 mM of EDTA was added in the formulation); PBS; 96-well culture plate.
as §2, §3, §7
(§30) 4. The culture plate was placed in an incubator. Digestion was carried out for about 5 min at 37° C.;
(§31) 5. 3 mL of complete culture solution was added to the culture plate to stop the digestion. The cells were carefully scoured with micropipette (1 ml) to give a uniform cell suspension. The suspension was implanted into a 96-well cell culture disc by 3000 cells/100 μL per well. The culture plate was incubated overnight under 5% CO2 at 37° C. In day 2, 100 μL of culture solution comprising a compound was added in each well. The plate was further incubated for 72 h under 5% CO2 at 37° C.;
as §9, §10, §11, §12, §13, §14, §15, §16, §17, §18

[8] = system: A431 cells; assay: A431 cell growth inhibition test (MTT assay); assay type: cell-based, human; settings: 72 h
Procedure: A431 Cell Growth Inhibition Test (MTT Assay)
as §1
Culture medium: 45% DMEM+45% F12+10% FBS (fetal calf serum); Pancreatin (0.25% (w/v) solution was formulated with PBS, 0.53 mM of EDTA was added in the formulation); PBS; 96-well culture plate.
as §2, §3, §7, §30
as §31, with “mL)” for “ml)”, “2500” for “3000”
as §9, §10, §11, §12, §13, §14, §15, §16, §17, §18

[9] = system: B16 cells; assay: B16 cell growth inhibition test (MTT assay); assay type: cell-based, mouse; settings: 72 h
Procedure: B16 Cell Growth Inhibition Test (MTT Assay)
as §1, §27, §2, §3, §7, §8
as §31, with “mL)” for “ml)”, “2500” for “3000”
as §9
7. 100 μl of serum-free culture solution containing 0.5 mg/mL MTT was added in each well. The plate was incubated for 3 h;
as §11, §12, §13, §14, §15, §16, §17, §18

[10] = system: NCI-446 cells; assay: NCI-446 cell growth inhibition test (MTT assay); assay type: cell-based, human; settings: 72 h
Procedure: NCI-446 Cell Growth Inhibition Test (MTT Assay)
II. Reagents and Consumable Materials Culture medium: 90% RPMI1640+10% FBS (fetal calf serum); Pancreatin (0.25% (w/v) solution was formulated with PBS, 0.53 mM of EDTA was added in the formulation); PBS; 96-well culture plate.
as §2
2. The culture solution was sucked out. The plate was washed with 5 ml of PBS once or twice;
as §7, §28
as §31, with “mL)” for “ml)”, “4000” for “3000”
as §9, §10, §11
9. […]
as §29

[11] = Solubility of the compound in water; assay type: physicochemical
[12] = Storage stability detected by HPLC; assay type: physicochemical; settings: sealed and stored for 9 months under refrigeration conditions

`COCCOCCOCCOCCOCCOCCOCCOCCOCCNC(=O)CCC(=O)OCC(=O)C1(O)Cc2c(O)c3c(c(O)c2C(OC2CC(n4cccc4)C(O)C(C)O2)C1)C(=O)c1c(OC)cccc1C3=O` (stereo not drawn) [Example 98] gave an IC50 [1] of 15 nM.

`COc1cccc2c1C(=O)c1c(O)c3c(c(O)c1C2=O)CC(O)(C(=O)COC(=O)CCC(=O)NCCOCCOCCOCCOCCOCCOCCOCCO)CC3OC1CC(n2cccc2)C(O)C(C)O1` (stereo not drawn) [Example 90] showed an IC50 [2] of 30 nM, an IC50 [3] of 29 nM and an IC50 [4] of 90 nM.

`COc1cccc2c1C(=O)c1c(O)c3c(c(O)c1C2=O)CC(O)(C(=O)COC(=O)CCC(=O)NCCN1CCOCC1)CC3O[C@H]1C[C@H](n2cccc2)[C@H](O)[C@H](C)O1` (stereo partly drawn) [Example 89, 10-((3′-(pyrrol-1-yl)-2′,3′,6′-trideoxy-alphal-l-lyxo-hexylpyranyl)oxy)-7,8,9,10-tetrahydro-6,8,11-trihydroxy-13-oxo-14-(4-((2-(morpholin-1-yl)ethyl)amino)-4-oxo-butyrato)-1-methoxy-5,12-naphthalenedione acetate] showed an IC50 [2] of 56 nM, an IC50 [5] of 2.5 nM and an IC50 [6] of 333 nM. The IC50 [7] was 48 nM, the IC50 [8] was 46 nM and the IC50 [9] was 3 nM. It also gave an IC50 [10] of 140 nM.

In the case of `COc1cccc2c1C(=O)c1c(O)c3c(c(O)c1C2=O)CC(O)(C(=O)COC(=O)CCC(=O)NCCN1CCOCC1)CC3O[C@H]1C[C@H](n2cccc2)[C@H](O)[C@H](C)O1.O=P(O)(O)O` (stereo partly drawn) [Example 96, 10-((3′-(pyrrol-1-yl)-2′,3′,6′-trideoxy-alphal-l-lyxo-hexylpyranyl)oxy)-7,8,9,10-tetrahydro-6,8,11-trihydroxy-13-oxo-14-(4-((2-(morpholin-1-yl)ethyl)amino)-4-oxo-butyrato)-1-methoxy-5,12-naphthalenedione phosphate], the “solubility of the compound in water” value [11] is reported as “more than 26 mg/ml” and the “stability on storage (degraded product by HPLC)” value [12] is reported as “No obvious degraded product was observed”.

For `COc1cccc2c1C(=O)c1c(O)c3c(c(O)c1C2=O)CC(O)(C(=O)COC(=O)CCC(=O)NCCOCCOCCOCCOCCOCCOCCOCCOCCOCCOCCOCCO)CC3OC1CC(n2cccc2)C(O)C(C)O1` (stereo not drawn) [Example 92], the IC50 [2] was 61 nM and the IC50 [3] was 28 nM.

Source: patent publication US9670242B2, “Tetracyclic anthraquinone derivatives” (Tianjin Hemay Bio-Tech Co., Ltd, priority 2012, dated 2017)
